From US20150005390A1, “METHOD FOR TREATING INFLAMMATORY DISORDER” (National Defense Medical Center, priority 2013, published 2015)

Columns and labels:
[1] = test system: NLRP3 expression in J774A.1 cells; experiment: NLRP3 expression, Western blot in LPS-activated macrophages; type: cell-based, mouse; details: J774A.1 cells incubated with creosol 30 minutes, then LPS 6 hours; FIG. 2E
Experimental: (§1) Whole cell lysates were separated by SDS-PAGE and electrotransferred to a PVDF (polyvinylidene fluoride) membrane. The membranes were incubated in a blocking solution—5% nonfat milk in phosphate buffered saline with 0.1% Tween 20—at room temperature for 1 hour. Each membrane was incubated with a specific primary antibody, at room temperature, for 2 hours. After washing the membrane three times in PBS with 0.1% Tween 20, it was incubated with an HRP-conjugated secondary antibody directed against the primary antibody. The membrane was developed by an enhanced chemiluminescence Western blot detection system.
(§2) J774A.1 cells (1×10^6/ml) were primed with LPS for 5.5 hours, followed by treatment with creosol for 30 minutes, and then stimulated with ATP (5 mM) for an additional 30 minutes. […] Data is expressed as the mean±SE from three separate experiments (wherein *p<0.05). In FIG. 2B, the expression of caspase-1 (p45) and cleaved caspase-1 (p10) were analyzed by Western blot. […] Data is expressed as the mean±SE from three separate experiments (wherein *p<0.05). The expressions of caspase-1 (p45) and cleaved caspase-1 (p10) were analyzed by Western blot, and the result of one of the three separate experiments is shown in FIG. 2D. […] The expressions of NLRP3 inflammasomes and IL-1β precursor were analyzed by Western blot. […]

[2] = test system: IL-1β secretion in J774A.1 cells; experiment: IL-1β secretion ELISA in ATP stimulated LPS-primed macrophages (NLRP3 inflammasome activation); type: cell-based, mouse
Experimental: Cells were seeded in 6-well plates at a density of 5×10^5 cells/ml, and then incubated with or without LPS (1 μug/ml) in the absence or presence of tested samples for 24 hours. The effects of the tested samples on TNF-α, IL-6 and IL-1β production were measured by ELISA according to the manufacturer's protocol. Briefly, 50 μl of biotinylated antibody reagent and 50 μl of supernatant were added to an anti-mouse TNF-α, IL-6 and IL-1β precoated stripwell plate, and incubated at room temperature for 2 hours. […] Following the addition of 100 μl of stop solution to each well to stop the reaction, the absorbance of the plate was measured by a microplate reader at a 450 nm wavelength.
as §2

[3] = test system: IL-6 expression in RAW 264.7 macrophages; experiment: IL-6 ELISA in LPS-activated macrophages; type: cell-based, murine; details: RAW 264.7 macrophages pretreated with creosol 30 minutes, then LPS 1 μg/ml 24 hours; FIG. 1B
Experimental: (§3) Cells were seeded in 6-well plates at a density of 5×10^5 cells/ml, and then incubated with or without LPS (1 μug/ml) in the absence or presence of tested samples for 24 hours. The effects of the tested samples on TNF-α, IL-6 and IL-1β production were measured by ELISA according to the manufacturer's protocol. Briefly, 50 μl of biotinylated antibody reagent and 50 μl of supernatant were added to an anti-mouse TNF-α, IL-6 and IL-1β precoated stripwell plate, and incubated at room temperature for 2 hours. After washing the plate three times with the washing buffer, 100 μl of diluted streptavidin-HRP (horseradish peroxidase) concentrate was added to each well and the plate was incubated at room temperature for 30 minutes. The washing process was repeated; then, 100 μl of a premixed tetramethylbenzidine substrate solution was added to each well and developed at room temperature, in the dark, for 30 minutes. Following the addition of 100 μl of stop solution to each well to stop the reaction, the absorbance of the plate was measured by a microplate reader at a 450 nm wavelength. As shown in FIG. 1B and FIG. 1C, RAW 264.7 macrophages (5×10^5/ml) were pretreated with creosol for 30 minutes, followed by stimulating with LPS (1 μg/ml) for 24 hours. IL-6 and TNF-α concentration in culture medium was assayed by ELISA.

[4] = test system: IL-1β precursor expression in J774A.1 cells; experiment: IL-1β precursor expression, Western blot in LPS-activated macrophages; type: cell-based, mouse; details: J774A.1 cells incubated with creosol 30 minutes, then LPS 6 hours; FIG. 2E
Experimental: as §1, §2

[5] = test system: ovariectomy-induced bone loss; details: through inhibiting osteoclastogenesis; cited from earlier work
[6] = test system: caspase-1 activation in J774A.1 cells; experiment: Caspase-1 activation, Western blot of p10 subunit in ATP stimulated LPS-primed macrophages; type: cell-based, mouse; details: then ATP 30 minutes
Experimental: as §1, §2

[7] = test system: TNF-α expression in RAW 264.7 macrophages; experiment: TNF-α ELISA in LPS-activated macrophages; type: cell-based, murine; details: RAW 264.7 macrophages pretreated with creosol 30 minutes, then LPS 1 μg/ml 24 hours; FIG. 1C
Experimental: as §3

[8] = test system: cultured rat hippocampal neurons; details: cultured rat hippocampal neurons exposed to N-methyl-D-aspartate or H2O2; cited from earlier work
[9] = test system: NO production in RAW 264.7 macrophages; experiment: NO inhibitory assay (Griess reaction) in LPS-activated macrophages; type: cell-based, murine; details: RAW 264.7 macrophages pretreated with creosol 30 minutes, then LPS 1 μg/ml 24 hours; FIG. 1A
Experimental: RAW 264.7 cells were seeded in 24-well plates at a density of 5×10^5 cells/ml, and then incubated with or without LPS (1 μg/ml) in the absence or presence of tested samples for 24 hours. The effects of creosol on NO production were measured indirectly by the analysis of nitrite levels, using the Griess reaction. The effects of creosol on the expression of inflammatory mediators were analyzed. In the present invention, RAW 264.7 macrophages (5×10^5/ml) were pretreated with creosol for 30 minutes, followed by stimulation with LPS (1 μg/ml) for 24 hours. NO concentration in culture medium was assayed by the Griess reaction.

For `COc1cc(C)ccc1O` [creosol, 2-methoxy-4-methylphenol], the NLRP3 expression [1] was “inhibited NLRP3 expression slightly”, the IL-1β secretion ([2]; J774A.1 cells incubated with creosol 30 minutes before LPS-priming, washed out, then ATP 30 minutes, FIG. 2C) was “inhibited IL-1β secretion in a dose-dependent fashion” and the IL-1β secretion ([2]; LPS-primed J774A.1 cells incubated with creosol 30 minutes, then ATP 5 mM 30 minutes, FIG. 2A) was “inhibited IL-1β secretion slightly”. The IL-6 expression [3] was “able to inhibit IL-6 expression in a dose-dependent manner”, the IL-1β precursor expression [4] was “significantly inhibited the IL-1[…] precursor expression” and the “prevention of ovariectomy-induced bone loss” value [5] was “able to prevent ovariectomy-induced bone loss”. The caspase-1 activation ([6]; J774A.1 cells incubated with creosol 30 minutes before LPS-priming, washed out, FIG. 2D) was “inhibited by creosol in a dose-dependent fashion”, the caspase-1 activation ([6]; LPS-primed J774A.1 cells incubated with creosol 30 minutes, FIG. 2B) was “inhibited caspase-1 activation slightly” and the TNF-α expression [7] was “not able to inhibit TNF-α expression”. For the same molecule, the “prevention of cell death of neurons” value [8] was “able to prevent the cell death” and the “expression of NO” value [9] was “inhibited in creosol-pretreated cells in a dose-dependent manner”.
